Data set [1] in a line: Inhibition of human zinc metalloprotease.
Data set [2] is described as follows: Inhibition of Mycobacterium tuberculosis Zmp1.
The test system of data set [3] is Salmonella typhimurium. Description: Antibacterial activity against Salmonella typhimurium. The format is functional, Salmonella enterica subsp. enterica serovar Typhimurium. As to conditions: Salmonella enterica.
Data set [4] concerns Enterococcus faecalis. Description: Antibacterial activity against Enterococcus faecalis. The class given is functional.
Data set [5] in a line: Inhibition of Mycobacterium tuberculosis FBA.
For data set [6], the target named is Botulinum neurotoxin type A (Clostridium botulinum, UniProt P0DPI0). Kind of data set: Inhibition of Botulinum neurotoxins/A.
Sequence of Botulinum neurotoxin type A (P0DPI0 2-448 limits assumed): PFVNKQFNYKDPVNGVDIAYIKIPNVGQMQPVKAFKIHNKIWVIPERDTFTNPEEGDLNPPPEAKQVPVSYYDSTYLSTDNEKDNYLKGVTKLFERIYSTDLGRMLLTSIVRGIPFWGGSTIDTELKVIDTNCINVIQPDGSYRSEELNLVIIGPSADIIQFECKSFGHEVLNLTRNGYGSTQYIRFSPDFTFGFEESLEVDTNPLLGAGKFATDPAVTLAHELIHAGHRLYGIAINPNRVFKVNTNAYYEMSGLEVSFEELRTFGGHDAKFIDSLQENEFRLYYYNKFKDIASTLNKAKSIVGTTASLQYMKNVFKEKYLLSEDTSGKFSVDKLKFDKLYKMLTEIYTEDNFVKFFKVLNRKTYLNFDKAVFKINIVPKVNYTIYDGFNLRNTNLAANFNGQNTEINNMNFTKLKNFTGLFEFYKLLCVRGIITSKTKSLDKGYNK
In data set [7] the test system is Candida albicans. Description: Antifungal activity against Candida albicans. The format is functional.
The next data set relates to Nakaseomyces glabratus. Kind of data set: Antifungal activity against Candida glabrata. The format is functional.
The test system of another data set is Salmonella sp. Description: Antibacterial activity against Salmonella sp. The format is functional.
For data set [8], the system named is Bacillus subtilis. Kind of data set: Antibacterial activity against Bacillus subtilis. The class given is functional.
In another data set the test system is Serratia marcescens. Kind of data set: Antibacterial activity against Serratia marcescens ATCC 8100. The class given is functional.
The subject of data set [9] is Salmonella typhimurium. Description: Antibacterial activity against Salmonella typhimurium ATCC 13311. The format is functional, Salmonella enterica subsp. enterica serovar Typhimurium. As to conditions: Salmonella enterica.
Data set [10] relates to Staphylococcus aureus. Kind of data set: Antibacterial activity against Staphylococcus aureus ATCC 25923. The format is functional.
Another data set relates to Morganella morganii. Description: Antibacterial activity against Morganella morganii. The format is functional.
In data set [11] the test system is Corynebacterium diphtheriae. Kind of data set: Antibacterial activity against Corynebacterium diphtheriae NCTC 10356. The class given is functional.
Data set [12] has as its system Bacillus subtilis. Kind of data set: Antibacterial activity against Bacillus subtilis ATCC 6633. The class given is functional.
The subject of a further data set is Arthrodermataceae. Description: […] activity against Arthrodermataceae. The class given is functional.
In data set [13] the test system is Achromobacter xylosoxidans. Kind of data set: Antibacterial activity against Achromobacter xylosoxidans ATCC 2706. The class given is functional.
The test system of data set [14] is Staphylococcus epidermidis. Description: Antibacterial activity against Staphylococcus epidermidis ATCC 12228. The format is functional.
A further data set concerns Plesiomonas shigelloides. Kind of data set: Antibacterial activity against Plesiomonas shigelloides. The class given is functional.
In a further data set the test system is Escherichia coli. Description: Antibacterial activity against Escherichia coli ATCC 25922. The format is functional.
The subject of another data set is Shewanella putrefaciens. Description: Antibacterial activity against Shewanella putrefaciens ATCC 8071. The format is functional.
For another data set, the system named is Salmonella enteritidis. Description: Antibacterial activity against Salmonella enteritidis. To be noted: Salmonella enterica. The class given is functional, Salmonella enterica subsp. enterica serovar Enteritidis.
A short description of data set [15]: Inhibition of Aeromonas proteolytica aminopeptidase. Further details: species or system Vibrio proteolyticus.
Data set [16] concerns Enterococcus faecalis. Description: Antibacterial activity against Enterococcus faecalis ATCC 29212. The format is functional.
Data set [17] relates to Mycobacterium tuberculosis. Kind of data set: Antibacterial activity against Mycobacterium tuberculosis. The class given is functional.
A short description of data set [18]: Inhibition of Mycobacterium tuberculosis MetAP1a.
The nature of data set [19]: Inhibition of Mycobacterium tuberculosis MetAP1c.
For data set [20], the target named is Methionine aminopeptidase 1 (Homo sapiens, UniProt P53582). Kind of data set: Inhibition of human MetAP1.
The test system of a further data set is Bacillus cereus. Kind of data set: Antibacterial activity against Bacillus cereus. The format is functional.
Another data set has as its system Stutzerimonas stutzeri. Kind of data set: Antibacterial activity against Pseudomonas stutzeri ATCC 17587. The format is functional.
Data set [21] addresses Methionine aminopeptidase 2 (Homo sapiens, UniProt P50579). Description: Inhibition of human MetAP2.
For a further data set, the system named is Aeromonas hydrophila. Description: Antibacterial activity against Aeromonas hydrophila. The class given is functional.
The next data set deals with Salmonella enterica. Kind of data set: Antibacterial activity against Salmonella choleraesuis ATCC 10708. The class given is functional.
The subject of data set [22] is Staphylococcus aureus. Kind of data set: Antibacterial activity against Staphylococcus aureus ATCC 29213. The format is functional.
For data set [23], the system named is Enterococcus faecalis. Description: Antibacterial activity against Enterococcus faecalis ATCC 33186. The class given is functional.
The test system of a further data set is Shigella dysenteriae. Description: Antibacterial activity against Shigella dysenteriae. The class given is functional.
A further data set deals with Klebsiella pneumoniae. Kind of data set: Antibacterial activity against Klebsiella pneumoniae ATCC 700603. The class given is functional.
In data set [24] the test system is Candida. Description: Antifungal activity against Candida. The format is functional.
A further data set relates to Citrobacter freundii. Kind of data set: Antibacterial activity against Citrobacter freundii. The class given is functional.
A further data set concerns Listeria monocytogenes. Description: Antibacterial activity against Listeria monocytogenes. The class given is functional.
For a further data set, the system named is Micrococcus luteus. Description: Antibacterial activity against Micrococcus luteus ATCC 10240. The format is functional.
The subject of data set [25] is Staphylococcus aureus. Description: Antibiofilm activity against methicillin-resistant Staphylococcus aureus. The class given is functional.
The next data set deals with Enterococcus. Kind of data set: Antibiofilm activity against vancomycin-resistant Enterococcus. The format is functional.
For data set [26], the system named is Staphylococcus epidermidis. Description: Antibiofilm activity against methicillin-resistant Staphylococcus epidermidis. The class given is functional.
In data set [27] the test system is Candida albicans. Kind of data set: Antibiofilm activity against Candida albicans. The class given is functional.
The test system of a further data set is Cryptococcus neoformans. Kind of data set: Antifungal activity against Cryptococcus neoformans. The format is functional.
In the next data set the test system is Trichophyton. Description: Antifungal activity against Trichophyton. The format is functional.
Another data set deals with Microsporum. Kind of data set: Antifungal activity against Microsporum. The format is functional.
Data set [28] can be described thus: Cytotoxicity against human HeLa cells. The format is toxicity, cell-based.
Data set [29] deals with Candida. Description: Antibiofilm activity against Candida. The class given is functional.
Data set [30] can be described thus: Inhibition of bacterial New Delhi metallo-beta-lactamase 1. More on the design: species or system Bacteria.
A short description of data set [31]: Inhibition of bacterial VIM-2. More on the design: species or system Bacteria.
Data set [32] deals with Mycobacterium tuberculosis. Description: Antibacterial activity against aged non-growing Mycobacterium tuberculosis. The class given is functional.
A further data set has as its system Aspergillus niger. Description: Antifungal activity against Aspergillus niger. The class given is functional.

≈ marks a conversion by molar mass, not a printed value.

Sequence of Methionine aminopeptidase 2 (P50579 whole entry): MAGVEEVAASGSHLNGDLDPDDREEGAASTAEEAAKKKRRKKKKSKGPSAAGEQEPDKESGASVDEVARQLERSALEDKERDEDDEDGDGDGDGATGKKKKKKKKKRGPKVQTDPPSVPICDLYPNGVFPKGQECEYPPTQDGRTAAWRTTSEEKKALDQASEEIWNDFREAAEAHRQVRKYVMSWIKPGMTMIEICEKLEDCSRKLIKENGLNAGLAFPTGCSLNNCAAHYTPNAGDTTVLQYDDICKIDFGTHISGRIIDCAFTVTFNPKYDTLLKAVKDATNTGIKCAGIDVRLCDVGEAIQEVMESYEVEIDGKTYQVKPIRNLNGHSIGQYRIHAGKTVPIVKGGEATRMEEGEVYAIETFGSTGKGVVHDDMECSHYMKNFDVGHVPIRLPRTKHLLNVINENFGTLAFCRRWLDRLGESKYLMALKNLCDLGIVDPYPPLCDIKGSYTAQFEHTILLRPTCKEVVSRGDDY

`O=C(NOCc1ccccc1)c1ccc2cccc(O)c2n1`: the IC50 in [1] was not below 1 µM; in data set [2], 0.011 µM.
As to `O=C(CSc1nnc(COc2cccc3cccnc23)n1-c1ccccc1)Nc1nc2cc([N+](=O)[O-])ccc2s1`, the results for the MIC with Salmonella typhimurium [3] and in the data set on Enterococcus faecalis [4] were 13.7 µM (≈ 7.8 µg/mL) and 27.4 µM (≈ 15.6 µg/mL), respectively.
`O=C(O)c1ccc2cccc(O)c2n1`: the IC50 in data set [5] was 10 µM; in [2], more than 10 µM.
In turn, `O=S(=O)(NC(c1cccc(F)c1)c1cc(Cl)c2cccnc2c1O)c1ccccc1` (stereo unspecified) came in with an IC50 in data set [6] of 5.8 µM.
Take `O=S(=O)(O)c1ccc(O)c2ncccc12`: the MIC against Candida albicans [7] and with Nakaseomyces glabratus was 4.44 µM (≈ 1 µg/mL) each time.
For the compound `Cc1nc2[nH]nc(/N=N/c3ccc(O)c4ncccc34)c2c(C)c1Br`, the values for the MIC in the data set with Salmonella sp. and with Bacillus subtilis [8] were 4.91 µM (≈ 1.95 µg/mL) and 19.7 µM (≈ 7.81 µg/mL), respectively.
For `Oc1c(I)cc(Cl)c2cccnc12` [CLIOQUINOL], the MIC against Serratia marcescens was more than 26.2 µM; in the data set on Salmonella typhimurium [9], more than 26.2 µM; in the data set with Staphylococcus aureus [10] it was 26.2 µM (≈ 8 µg/mL); against Morganella morganii, more than 26.2 µM; in [11], 26.2 µM (≈ 8 µg/mL); against Bacillus subtilis [12] it was 26.2 µM (≈ 8 µg/mL). Also, the MIC was 0.409 µM (≈ 0.125 µg/mL) against Arthrodermataceae; more than 26.2 µM in data set [13]; 26.2 µM (≈ 8 µg/mL) in data set [14]; more than 26.2 µM in the data set on Plesiomonas shigelloides; more than 26.2 µM in the data set on Escherichia coli; more than 26.2 µM against Shewanella putrefaciens. Further, the MIC against Salmonella enteritidis is more than 26.2 µM; in the data set with Enterococcus faecalis [16], 26.2 µM (≈ 8 µg/mL); in [17] it was 32.7 µM (≈ 10 µg/mL); against Bacillus cereus it was 26.2 µM (≈ 8 µg/mL); with Stutzerimonas stutzeri, more than 26.2 µM; in the data set on Aeromonas hydrophila, more than 26.2 µM. Besides, the MIC with Salmonella enterica was more than 26.2 µM; against Staphylococcus aureus [22], 26.2 µM (≈ 8 µg/mL); against Enterococcus faecalis [23], 26.2 µM (≈ 8 µg/mL); in the data set on Shigella dysenteriae, more than 26.2 µM; with Klebsiella pneumoniae it was more than 26.2 µM; against Candida [24], 0.206 µM (≈ 0.0629 µg/mL). The MIC is more than 26.2 µM against Citrobacter freundii, 26.2 µM (≈ 8 µg/mL) with Listeria monocytogenes and 26.2 µM (≈ 8 µg/mL) in the data set on Micrococcus luteus. In data set [15], this compound returned an inhibitory constant (Ki) of more than 100 µM. The IC50 came to 9.25 µM in data set [18], 11.2 µM in [19], 84.7 µM in data set [20] and 80.4 µM in data set [21].
Turning to `Oc1c(Br)cc(Br)c2ccc(CNc3ccc(F)cc3)nc12`, the MBEC in the data set with Staphylococcus aureus [25] is 93.8 µM; with Enterococcus it was 1 µM; in data set [26] it was 5.9 µM.
The compound `CC(=O)Oc1c(Br)cc(Br)c2ccc(C)nc12` registered an MIC against Candida albicans [27] of 12.5 µM (≈ 4.49 µg/mL).
As for `Cc1ccc(S(=O)(=O)OCCn2cc(COc3cccc4cccnc34)nn2)cc1`, the MIC80 against Cryptococcus neoformans was determined as 2.36 µM (≈ 1 µg/mL).
As to `COc1cc(OC)nc(Nc2ccc3cccnc3c2O)n1`, the MIC in the data set with Trichophyton and against Microsporum was 3.35 µM (≈ 0.999 µg/mL) throughout.
The compound `CCOC(=O)c1cc2c(Br)cc(Br)c(O)c2nc1C` showed an IC50 in data set [28] of more than 100 µM.
For the compound `O=S(=O)(Nc1ccc(Cl)cc1)c1ccc(O)c2ncccc12`, the MIC against Candida [29] worked out at 3 µM (≈ 1 µg/mL).
On to `O=C(O)c1ccc2cccnc2c1O`, for which the half-maximal inhibitory concentration (IC50) in [30] was found to be 0.76 µM; in data set [31], 0.74 µM.
On to `Oc1c(Br)cc(Cl)c2cccnc12`, for which the MIC turned out to be 19.3 µM (≈ 5 µg/mL) in data set [17] and 2.51 µM (≈ 0.649 µg/mL) in [32]. The IC50 in [18] came out at 5.44 µM; in [19] it was 4.92 µM; in data set [20] it was 105 µM; in [21] it was 112 µM.
For `Brc1cccc(COc2cccc3cccnc23)c1`, the MIC against Aspergillus niger amounted to 9.94 µM (≈ 3.12 µg/mL).

For the origin of these results see ChEMBL document CHEMBL5226349, “Novel Antimicrobial 8-Hydroxyquinoline-Based Agents: Current Development, Structure-Activity Relationships, and Perspectives” (J Med Chem, 2021).
